Columns and labels:
Type in all cases: in vivo
[1] = tested on: phenylquinone induced mouse writhing; assay: phenylquinone induced mouse writhing test; conditions: po; for inhibition at 16 mg/kg: 16 mg/kg per os
Text: In a conventional phenylquinone induced mouse writhing test, compound 1, 3 and 4 were active at the following dose per os.

[2] = tested on: carageenin induced oedema; assay: carrageenin induced oedema test in the rat; conditions: for inhibitions (carrageenin oedema) versus controls: dose not given
Text: In a conventional carageenin induced oedema test in the rat, the results were as follows: […]

[3] = tested on: cotton pellet induced granuloma; assay: cotton pellet induced granuloma test
Text: In a convention cotton pellet induced granuloma test, the results were as follows: I

## Cn1cccc1C(=O)c1ccc(CC(=O)O)n1C [Compound 1, 2-Carboxymethyl-1-methyl-5-(1'-methyl-2'-pyrroloyl)pyrrrole]
[1]
  inhibition at 16 mg/kg: 90%
[2]; dose 20 mg/kg, * 0.05>p>0.02
  inhibition at 20 mg/kg: 19%
[2]; dose 20 mg/kg, control 145.3 + 10.3
  Mean Oedema: 117.7 + 6.6
[3]; dose 10 mg/kg, * 0.05>p>0.02
  inhibition at 10 mg/kg: 22%
[3]; dose 10 mg/kg, control 48.1
  Granuloma Wt.: 37.6 mg

## Cc1cc(CC(=O)O)n(C)c1C(=O)c1cccn1C [Compound 3, 2-Carboxymethyl-1,4-dimethyl-5-(1'-methyl-2'-pyrroloyl) pyrrole]
[1]
  inhibition at 16 mg/kg: 100%
[1]; separate test
  ED50: 2.8 mg/kg
[2]; dose 12.5 mg/kg, ** 0.01>p>0.001
  inhibition at 12.5 mg/kg: 33%
[2]; dose 12.5 mg/kg, control 106.0 + 6.01
  Mean Oedema: 70.62 + 6.31
[3]; dose 5 mg/kg, ** 0.01>p>0.001
  inhibition at 5 mg/kg: 26%
[3]; dose 5 mg/kg, control 35.2
  Granuloma Wt.: 26.1 mg

## Cc1cc(CCC(=O)O)n(C)c1C(=O)c1cccn1C [Compound 4, 2-(2'-Carboxyethyl)-1,4-dimethyl-5-(1"-methyl-2" pyrroloyl) pyrrole]
[1]
  inhibition at 16 mg/kg: 60%

## CC(=O)CCc1cc(C)c(C(=O)c2cccn2C)n1C [Compound 5, 4-(1',4'-Dimethyl-5'-(1"-methyl-2"-pyrroloyl)-2'-pyrryl) butan-2-one]
[2]
  inhibitions (carrageenin oedema) versus controls: significantly different from controls

## Cc1cc(CCC(C)O)n(C)c1C(=O)c1cccn1C (stereo not drawn) [Compound 6, 4-(1',4-Dimethyl-5'-(1"-methyl-2"-pyrroloyl)-2'-pyrryl) butan-2-ol]
[2]
  inhibitions (carrageenin oedema) versus controls: significantly different from controls

## CC(=O)OC(C)CCc1cc(C)c(C(=O)c2cccn2C)n1C (stereo not drawn) [Compound 7, 2-Acetoxy-4-(1',4'-Dimethvl-5'-(1"-methyl-2"-pvrroloyl)-2'-pyrryl)butane]
[2]
  inhibitions (carrageenin oedema) versus controls: significantly different from controls

— patent EP0032048A1, “Pyrroloylpyrrole derivatives, processes for their preparation and their use” (BEECHAM GROUP PLC, priority 1980, dated 1981)
